According to US6969711B2, “Cyclic diamine compounds and medicine containing the same” (Kowa Company, Ltd., priority 1997, dated 2005):

Structure (SMILES)	melting point
COC(=O)c1cccc2oc(SCCCN3CCN(CC(=O)Nc4c(C(C)C)cccc4C(C)C)CC3)nc12 [Example 11, 2-[4-[3-(4-methoxycarbonylbenzoxazol-2-ylthio)propyl]piperazin-1-yl]-N-(2,6-diisopropylphenyl)acetamide]	132 to 133 °C
CC(C)c1cccc(C(C)C)c1NC(=O)CN1CCN(CCCSc2nc3ncccc3o2)CC1 [Example 12, 2-[4-[3-(oxazolo[4,5-b]pyridine-2-ylthio)propyl]piperazin-1-yl]-N-(2,6-diisopropylphenyl)acetamide]	125 to 127 °C
COC(=O)c1cccc2nc(SCCCN3CCCN(CC(=O)Nc4c(C(C)C)cccc4C(C)C)CC3)oc12 [Example 14, 2-[4-[3-(7-methoxycarbonylbenzoxazol-2-ylthio)propyl]homopiperazin-1-yl]-N-(2,6-diisopropylphenyl)acetamide]	83 to 85 °C
CC(C)c1cccc(C(C)C)c1NC(=O)CN1CCCN(CCCSc2nc3ncccc3o2)CC1 [Example 15, 2-[4-[3-(oxazolo[4,5-b]pyridin-2-ylthio)propyl]homopiperazin-1-yl]-N-(2,6-diisopropylphenyl)acetamide]	73 to 75 °C
CCCCCCCN(CCN1CCN(CCSc2nc3ccccc3o2)CC1)C(=O)Nc1c(C(C)C)cccc1C(C)C [Example 16, N-[2-[4-[2-(benzoxazol-2-ylthio)ethyl]piperazin-1-yl]ethyl]-N′-(2,6-diisopropylphenyl)-N-heptylurea]	110 to 111 °C
CCCCCCCN(CCN1CCN(CCSc2nc3cccc(C(=O)OC)c3o2)CC1)C(=O)Nc1c(C(C)C)cccc1C(C)C [Example 17, N′-(2,6-diisopropylphenyl)-N-heptyl-N-[2-[4-[2-(7-methoxycarbonylbenzoxazol-2-ylthio)-ethyl]piperazin-1-yl]ethyl]urea]	125 to 126 °C
CC(C)c1cccc(C(C)C)c1NC(=O)CCN1CCN(CCCSc2nc3ccccc3o2)CC1 [Example 23, 3-[4-[3-(benzoxazol-2-ylthio)propyl]piperazin-1-yl]-N-(2,6-diisopropylphenyl)propanamide]	93 to 95 °C
CSc1cc(C)nc(SC)c1NC(=O)CCN1CCN(CCSc2nc3ccccc3o2)CC1 [Example 27, 3-[4-[2-(benzoxazol-2-ylthio)ethyl]piperazin-1-yl]-N-[2,4-bis(methylthio)-6-methyl-3pyridyl]propanamide]	110 to 112 °C
CSc1cc(C)nc(SC)c1NC(=O)CN1CCN(CCCSc2nc3ccccc3o2)CC1 [Example 28, 2-[4-[3-(benzoxazol-2-ylthio)propyl]piperazin-1-yl]-N-[2,4-bis(methylthio)-6-methyl-3-pyridyl]acetamide]	160 to 161 °C
COC(=O)c1cccc2nc(SCCCN3CCN(CC(=O)Nc4c(SC)cc(C)nc4SC)CC3)oc12 [Example 30, N-[2,4-bis(methylthio)-6-methyl-3pyridyl)-2-[4-[3-(7-methoxycarbonylbenzoxazol-2-ylthio)propyl]piperazin-1-yl]acetamide]	76 to 79 °C
CSc1cc(C)nc(SC)c1NC(=O)CN1CCN(CCSc2nc3ccccc3s2)CC1 [Example 31, 2-[4-[2-(benzothiazol-2-ylthio)ethyl]piperazin-1-yl]-N-(2,4-bis(methylthio)-6-methyl-3-pyridyl)acetamide]	136 to 139 °C
CCSc1cc(C)nc(SCC)c1NC(=O)CN1CCN(CCSc2nc3ccccc3o2)CC1 [Example 34, 2-[4-[2-(benzoxazol-2-ylthio)ethyl]piperazin-1-yl]-N-[2,4-bis(ethylthio)-6-methyl-3-pyridyl]acetamide]	108 to 109 °C
CCSc1cc(C)nc(SCC)c1NC(=O)CN1CCN(CCSc2nc3cccc(C(=O)OC)c3o2)CC1 [Example 35, 2-[4-[2-(7-methoxycarbonylbenzoxazol-2-ylthio)ethyl]piperazin-1-yl]-N-[2,4-bis(ethylthio)-6methyl-3-pyridyl)acetamide]	118 to 119 °C
Cc1cc(SC(C)C)c(NC(=O)CN2CCN(CCSc3nc4ccccc4[nH]3)CC2)c(SC(C)C)n1 [Example 37, 2-[4-[2-(benzimidazol-2-ylthio)ethyl]piperazin-1-yl]-N-(2,4-bis(isopropylthio)-6-methyl-3-pyridyl)acetamide]	186 to 188 °C
COC(=O)c1cccc2nc(SCCN3CCN(CC(=O)Nc4c(SC(C)C)cc(C)nc4SC(C)C)CC3)oc12 [Example 39, N-[2,4-bis(isopropylthio)-6-methyl-3-pyridyl]-2-[4-[2-(7-methoxycarbonylbenzoxazol-2-ylthio)ethyl]piperazin-1-yl]acetamide]	60 to 63 °C
COc1cc(C)nc(OC)c1NC(=O)CN1CCN(CCSc2nc3ccccc3o2)CC1 [Example 45, 2-[4-[2-(benzoxazol-2-ylthio)ethyl]piperazin-1-yl]-N-[2,4-dimethoxy-6-methyl-3-pyridyl)acetamide]	113 to 115 °C
CSc1ncnc(SC)c1NC(=O)CN1CCN(CCSc2nc3ccccc3o2)CC1 [Example 46, 2-[4-[2-(benzoxazol-2-ylthio)ethyl]piperazin-1-yl]-N-[4,6-bis(methylthio)-5-pyrimidyl)acetamide]	171 to 172 °C

Structure (SMILES)	melting point
Cc1cc(C)c(NC(=O)CN2CCN(CCSc3nc4ccccc4o3)CC2)c(C)n1 [Example 47, 2-[4-[2-(benzoxazol-2-ylthio)ethyl]piperazin-1-yl]-N-(2,4,6-trimethyl-3-pyridyl)acetamide]	159 to 160 °C
CC(C)c1cc(C(C)C)c(NC(=O)CN2CCN(CCSc3nc4ccccc4o3)CC2)c(C(C)C)c1 [Example 48, 2-[4-[2-(benzoxazol-2-ylthio)ethyl]piperazin-1-yl]-N-(2,4,6-triisopropylphenyl)acetamide]	160 to 163 °C
CC(C)c1cc(C(C)C)c(NC(=O)CN2CCN(CCSc3nc4ccccc4[nH]3)CC2)c(C(C)C)c1 [Example 49, 2-[4-[2-(benzimidazol-2-ylthio)ethyl]piperazin-1-yl]-N-(2,4,6-triisopropylphenyl)acetamide]	217 to 218 °C
CC(C)c1cc(C(C)C)c(NC(=O)CN2CCN(CCCSc3nc4ccccc4s3)CC2)c(C(C)C)c1 [Example 55, 2-[4-[3-(benzothiazol-2-ylthio)propyl]piperazin-1-yl]-N-(2,4,6-triisopropylphenyl)acetamide]	107 to 108 °C
CC(C)c1ccc([N+](=O)[O-])c(C(C)C)c1NC(=O)CN1CCN(CCSc2nc3ccccc3o2)CC1 [Example 58, 2-[4-[2-(benzoxazol-2-ylthio)ethyl]piperazin-1-yl]-N-(2,6-diisopropyl-3-nitrophenyl)acetamide]	143 to 145 °C
CC(C)c1ccc(N(C)C)c(C(C)C)c1NC(=O)CN1CCN(CCSc2nc3ccccc3o2)CC1 [Example 59, 2-[4-[2-(benzoxazol-2-ylthio)ethyl]piperazin-1-yl]-N-(2,6-diisopropyl-3-dimethylaminophenyl)acetamide]	159 to 161 °C
CSc1ccc(C(C)C)c(NC(=O)CN2CCN(CCSc3nc4ccccc4o3)CC2)c1C(C)C [Example 60, 2-[4-[2-(benzoxazol-2-ylthio)ethyl]piperazin-1-yl]-N-[2,6-diisopropyl-3-(methylthio)phenyl]acetamide]	148 to 150 °C
CC(C)c1ccc(O)c(C(C)C)c1NC(=O)CN1CCN(CCSc2nc3ccccc3o2)CC1 [Example 61, 2-[4-[2-(benzoxazol-2-ylthio)ethyl]piperazin-1-yl]-N-(2,6-diisopropyl-3-hydroxyphenyl)acetamide]	96 to 98 °C
CC(C)c1ccc(OS(C)(=O)=O)c(C(C)C)c1NC(=O)CN1CCN(CCSc2nc3ccccc3o2)CC1 [Example 62, 2-[4-[2-(benzoxazol-2-ylthio)ethyl]-piperazin-1-yl]-N-(2,6-diisopropyl-3-mesyloxyphenyl)acetamide]	164 to 166 °C (dec.)
CC(=O)Oc1ccc(C(C)C)c(NC(=O)CN2CCN(CCSc3nc4ccccc4o3)CC2)c1C(C)C [Example 63, 2-[4-[2-(benzoxazol-2-ylthio)ethyl]piperazin-1-yl]-N-(2,6-diisopropyl-3-acetyloxyphenyl)acetamide]	129 to 131 °C
CCOCCOc1ccc(C(C)C)c(NC(=O)CN2CCN(CCSc3nc4ccccc4o3)CC2)c1C(C)C [Example 65, 2-[4-[2-(benzoxazol-2-ylthio)ethyl]piperazin-1-yl]-N-[2,6-diisopropyl-3-(2-ethoxyethyloxy)phenyl)acetamide]	100 to 103 °C
CC(C)c1cc([N+](=O)[O-])c(O)c(C(C)C)c1NC(=O)CN1CCN(CCSc2nc3ccccc3o2)CC1 [Example 66, 2-[4-[2-(benzoxazol-2-ylthio)ethyl]piperazin-1-yl]-N-(2,6-diisopropyl-3-hydroxy-4-nitrophenyl)acetamide]	139 to 141 °C
CC(C)c1ccc([N+](=O)[O-])c(C(C)C)c1NC(=O)CN1CCN(CCCSc2nc3ccccc3o2)CC1 [Example 67, 2-[4-[3-(benzoxazol-2-ylthio)propyl]piperazin-1-yl]-N-(2,6-diisopropyl-3-nitrophenyl)acetamide]	156 to 158 °C
CSc1ccc(C(C)C)c(NC(=O)CN2CCN(CCCSc3nc4ccccc4o3)CC2)c1C(C)C [Example 68, 2-[4-[3-(benzoxazol-2-ylthio)propyl]piperazin-1-yl]-N-[2,6-diisopropyl-3-(methylthio)phenyl]acetamide]	126 to 127 °C
COc1ccc(C(C)C)c(NC(=O)CN2CCN(CCCSc3nc4ccccc4o3)CC2)c1C(C)C [Example 70, 2-[4-[3-(benzoxazol-2-ylthio)propyl]piperazin-1-yl]-N-(2,6-diisopropyl-3-methoxyphenyl)acetamide]	105 to 107 °C
CCOCCOc1ccc(C(C)C)c(NC(=O)CN2CCN(CCCSc3nc4ccccc4o3)CC2)c1C(C)C [Example 71, 2-[4-[3-(benzoxazol-2-ylthio)propyl]piperazin-1-yl]-N-[2,6-diisopropyl-3-(2-ethoxyethyloxy)phenyl]acetamide]	99 to 100 °C
CC(C)c1cc(O)cc(C(C)C)c1NC(=O)CN1CCN(CCSc2nc3ccccc3o2)CC1 [Example 72, 2-[4-[2-(benzoxazol-2-ylthio)ethyl]piperazin-1-yl]-N-(2,6-diisopropyl-4-hydroxyphenyl)acetamide]	162 to 164 °C
